Data reported in patent publication US9403802B2, “Heterocyclic compound and use therefor” (Takeda Pharmaceutical Company Limited, priority 2012, dated 2016).
Like-named read-outs stand apart in the source and are kept apart here. Blank lines part the entries; values can stand above or below the compound they belong to.

Key:
[1] = biological target: T1, human M1 receptor (hCHRM1) (Homo sapiens, UniProt P11229); assay: Measurement of cholinergic muscarinic M1 receptor positive allosteric modulator (M1PAM) activity, calcium fluorescence (FLIPRtetra); assay type: cell-based; conditions: for activity (%) at 10 μM: test compound 10 μM with acetylcholine at EC20 (final 0.6 nM), 100% = acetylcholine 1 μM, 0% = DMSO
T1 construct: expressed in transfected cells; host or cells: CHO-K1
T1 sequence (P11229 1-460): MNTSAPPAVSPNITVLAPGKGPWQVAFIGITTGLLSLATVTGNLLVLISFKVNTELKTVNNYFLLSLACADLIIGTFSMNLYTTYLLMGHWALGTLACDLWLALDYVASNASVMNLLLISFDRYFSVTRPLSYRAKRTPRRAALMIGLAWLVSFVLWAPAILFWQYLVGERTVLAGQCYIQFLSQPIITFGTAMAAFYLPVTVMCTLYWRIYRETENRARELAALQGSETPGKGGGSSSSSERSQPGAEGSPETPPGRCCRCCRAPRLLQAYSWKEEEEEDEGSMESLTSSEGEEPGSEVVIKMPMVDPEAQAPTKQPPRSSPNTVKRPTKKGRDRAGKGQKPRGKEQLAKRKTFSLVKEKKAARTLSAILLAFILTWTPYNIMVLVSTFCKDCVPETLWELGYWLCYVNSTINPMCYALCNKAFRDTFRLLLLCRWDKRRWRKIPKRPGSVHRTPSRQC
Procedure: The activity of a test compound in the presence of acetylcholine at EC20 concentration (final concentration 0.6 nM), which affords an action corresponding to 20% of the maximum activity, was measured as M1PAM activity. The method is as follows. CHO-K1 cells forcibly expressing a human M1 receptor (hCHRM1) were plated on a 384-well black clear bottom plate (BD Falcon) at 5,000 cells/well, and cultured in an incubator at 37° C., 5% CO2 for 1 day. The medium in the cell plate was removed, and assay buffer A (Recording medium (DOJINDO LABORATORIES), 0.1% bovine serum albumin (BSA) (Wako Pure Chemical Industries, Ltd.), 2.5 μg/mL Fluo-4 AM (DOJINDO LABORATORIES), 0.08% Pluronic F127 (DOJINDO LABORATORIES), 1.25 mM probenecid (DOJINDO LABORATORIES)) containing a calcium indicator was added at 30 μL/well. The cells were left standing in the incubator at 37° C., 5% CO2 for 30 min, and further left standing at room temperature for 30 min. A test compound prepared by diluting with assay buffer B (HBSS (Invitrogen), 20 mM HEPES (Invitrogen), 0.1% BSA) containing 2.4 nM acetylcholine was added at 10 μL/well, and the fluorescence was measured by FLIPRtetra (Molecular Devices) for 1 min every 1 second. With the definition that the amount of change in the fluorescence on addition of acetylcholine (final concentration 1 μM) is 100% and that on addition of DMSO instead of a test compound is 0%, the activity (%) of the test compound and the inflection point in the concentration-dependent curve of the test compound were calculated as IP values.

[2] = Central migration (Kp value) measurement test; assay type: in vivo; conditions: male, Jcl ICR, mouse, brain/plasma, mice, ratio of intracerebral (μg/g) to plasma (μg/mL) concentration; for Kp at 1 h: po, 1 mg/kg, 1 mg/10 mL/kg
Procedure: A. Compounds of Examples 6 and 10 (Intravenous Administration: i.v.) […]
animal: male Jcl ICR mice 7-week-old n=3 […]
administration conditions: intravenous administration 0.20 mg/l mL/kg (4 compounds/cassette administration) administration medium: N,N-dimethylacetamide (DMA)/1,3-Butanediol (1:1) sample: plasma, brain (homogenate was prepared by adding 4-fold amount of saline) plasma sampling time: 0.25 hr brain sampling time: 0.25 hr […]
animal: male Jcl ICR mice 8-week-old n=3 […]
administration medium: DMA/1,3-Butanediol (1:1) […]
plasma sampling time: 0.5 hr brain sampling time: 0.5 hr […]
column: Shimadzu Shim-pack XR-ODS (2.2 μm, 2.0×30 mm) mobile phase A: 10 mmol/L ammonium formate/formic acid (100:0.2, v/v) mobile phase B: acetonitrile/formic acid (100:0.2, v/v) […]
column temperature: 50° C. sample injection volume: 1 μL (Example 6), 2 μL (Example 10) plasma pre-treatment conditions: A standard solution dissolution solvent (DMSO) or a standard solution (5 μL) was added to a sample (50 μL). Acetonitrile (150 μL) containing the internal standard substance was added, and the mixture was vigorously stirred and centrifuged at 5250 rpm. A dilution solvent (160 μL) was added to the centrifuged supernatant (60 μL). The solution (40 μL) was taken, and the dilution solvent (160 μL) was added to give a sample solution for compound plasma concentration measurement (mobile phase A:mobile phase B=7:3 (v/v) was used as the dilution solvent). brain pre-treatment conditions: The standard solution dissolution solvent (DMSO) or standard solution (5 μL) was added to a sample (50 μL). Acetonitrile (150 μL) containing the internal standard substance was added, and the mixture was vigorously stirred, and centrifuged at 5250 rpm. A dilution solvent (160 μL) was added to the centrifuged supernatant (60 μL). The solution (40 μL) was taken, and the dilution solvent (160 μL) was added to give a sample solution for intracerebral compound concentration measurement (mobile phase A:mobile phase B=7:3 (v/v) was used as the dilution solvent). B. Compounds of Examples 92 and 94 (Oral Administration: p.o.) animal: male Jcl ICR mice 10-week-old n=3 feeding: nonfasting administration conditions: oral administration 1 mg/10 mL/kg (5 compounds/cassette administration) administration medium: 0.5% methylcellulose solution sample: plasma, brain (homogenate was prepared by adding 4-fold amount of saline) plasma sampling time: 1 hr brain sampling time: 1 hr HPLC Analysis Conditions column: Shimadzu Shim-pack XR-ODS (2.2 μm, 2.0×30 mm) mobile phase A: 10 mmol/L ammonium formate/formic acid (100:0.2, v/v) mobile phase B: acetonitrile/formic acid (100:0.2, v/v) flow rate: 0.7 mL/min. column temperature: 50° C. sample injection volume: 1 μL […]

[3] = inflection point of the concentration-dependent curve, with acetylcholine at EC20 (final 0.6 nM), CHO-K1 cells expressing hCHRM1, read-out: IP value

SMILES: COc1ccc(Cn2cc(C(=O)N[C@H]3CCOC[C@@H]3O)c(=O)c3c(F)ccc(F)c32)cc1 (racemic) [Example 6, 1,5-anhydro-2,3-dideoxy-3-({[5,8-difluoro-1-(4-methoxybenzyl)-4-oxo-1,4-dihydroquinolin-3-yl]carbonyl}amino)-DL-threo-pentitol]
- EC50 [1]: 0.016 µM
- activity (%) at 10 μM ([1]; CHO-K1 cells expressing hCHRM1): 98%
- Kp at 0.25 h ([2]; iv, 0.2 mg/kg, 0.2 mg/1 mL/kg, sampling time 0.25 hr): 0.1

SMILES: COc1ccc(Cn2cc(C(=O)N[C@H]3CCCC[C@@H]3O)c(=O)c3c(F)ccc(F)c32)cc1 (racemic) [Example 10, 5,8-difluoro-N-[(1,2-trans)-2-hydroxycyclohexyl]-1-(4-methoxybenzyl)-4-oxo-1,4-dihydroquinoline-3-carboxamide]
- EC50 [1]: 0.055 µM
- activity (%) at 10 μM ([1]; CHO-K1 cells expressing hCHRM1): 103%
- Kp at 0.5 h ([2]; iv, 0.2 mg/kg, 0.2 mg/1 mL/kg, sampling time 0.5 hr): 0.33

SMILES: O=C(N[C@H]1CCC[C@@H]1O)c1cn(Cc2ccc(-n3cccn3)cc2)c2c(F)cccc2c1=O (racemic) [Example 92, 8-fluoro-N-[(1,2-trans)-2-hydroxycyclopentyl]-4-oxo-1-[4-(1H-pyrazol-1-yl)benzyl]-1,4-dihydroquinoline-3-carboxamide]
- EC50 [1]: 0.055 µM
- activity (%) at 10 μM ([1]; CHO-K1 cells expressing hCHRM1): 104%
- Kp at 1 h [2]: 0.16

- EC50 [1, 3]: 0.016 µM
- activity (%) at 10 μM ([1]; CHO-K1 cells expressing hCHRM1): 97%
SMILES: COc1ccc(Cn2nc(C(=O)N[C@H]3CCOC[C@@H]3O)c(=O)c3ccccc32)cc1 (racemic) [Example 71, 1,5-anhydro-2,3-dideoxy-3-({[1-(4-methoxybenzyl)-4-oxo-1,4-dihydrocinnolin-3-yl]carbonyl}amino)-DL-threo-pentitol]

SMILES: COc1ccc(Cn2cc(C(=O)N[C@H]3CC(F)(F)CC[C@@H]3O)c(=O)c3c(F)ccc(F)c32)cc1 (racemic) [Example 84, N-[(1,2-trans)-5,5-difluoro-2-hydroxycyclohexyl]-5,8-difluoro-1-(4-methoxybenzyl)-4-oxo-1,4-dihydroquinoline-3-carboxamide]
- EC50 [1]: 0.091 µM
- activity (%) at 10 μM ([1]; CHO-K1 cells expressing hCHRM1): 85%

SMILES: COc1ccc(Cn2cc(C(=O)NC3CCCCC3CO)c(=O)c3c(F)ccc(F)c32)cc1 (racemic) [Example 65, 5,8-difluoro-N-[(1,2-trans)-2-(hydroxymethyl)-cyclohexyl]-1-(4-methoxybenzyl)-4-oxo-1,4-dihydroquinoline-3-carboxamide]
- EC50 [1, 3]: 0.42 µM
- activity (%) at 10 μM ([1]; CHO-K1 cells expressing hCHRM1): 96%

SMILES: Cc1nn(C)cc1-c1ccc(Cn2cc(C(=O)N[C@H]3CCC[C@@H]3O)c(=O)c3ccccc32)cc1 (racemic) [Example 94, 1-[4-(1,3-dimethyl-1H-pyrazol-4-yl)benzyl]-N-[(1,2-trans)-2-hydroxycyclopentyl]-4-oxo-1,4-dihydroquinoline-3-carboxamide]
- EC50 [1]: 0.0085 µM
- activity (%) at 10 μM ([1]; CHO-K1 cells expressing hCHRM1): 95%
- Kp at 1 h [2]: 0.03
